In patent US20030078274A1, “Method of reducing neuronal injury or apoptosis” (priority 1999, published 2003):

How the values were obtained:
[1] = system: neurons in rat cerebrocortical cultures (SDF-1-induced apoptosis); assay: SDF-1-induced neuronal apoptosis in rat cerebrocortical cultures; format: cell-based, Sprague-Dawley rats; conditions: TKP
Description: (§1) The model used in the assays described below, i.e., rat cerebrocortical cultures, was prepared from embryos of Sprague-Dawley rats at day 15 to 17 of gestation. See Lei et al., Neuron 8:1087-1099 (1992) and Lipton et al., Nature 364:626-632 (1993). Cultures were used for experiments after 17 to 24 days in culture. These cultures contain neurons, astrocytes, and macrophages/microglia, as determined with specific immunolabeling. Prior to some experiments, macrophages/microglia or neurons were depleted from the cultures by exposure to 7.5 mM L-leucine methyl ester or 2 mM N-methyl-D-aspartate (NMDA), respectively. See Lipton, NeuroReport 3:913-915 (1992). Absence of macrophages/microglia or neurons in these cultures was confirmed immunocytochemically, using antibodies to ED-1 and microtubule-associated protein-2 (MAP-2), respectively. In some experiments, the Griess reaction was used to measure nitrite levels in the culture medium as an index of nitric oxide (NO) release. See Chao et al., Glia 16:276-284 (1996). […]
(§2) Neuronal apoptosis in the above-described assays was assessed using a variety of techniques, e.g., staining of permeabilized cells with propidium iodide to determine apoptotic morphology, and a neuron-specific antibody (against NeuN or MAP-2) to identify cell type. […]

[2] = system: neurons in rat cerebrocortical cultures (gp120-induced apoptosis); assay: gp120-induced neuronal apoptosis in rat cerebrocortical cultures; format: cell-based, Sprague-Dawley rats; conditions: for effect on neuronal apoptosis induced by gp120: gp120 200 pM, 24 h
Description: The model used in the assays described below, i.e., rat cerebrocortical cultures, was prepared from embryos of Sprague-Dawley rats at day 15 to 17 of gestation. See Lei et al., Neuron 8:1087-1099 (1992) and Lipton et al., Nature 364:626-632 (1993). Cultures were used for experiments after 17 to 24 days in culture. […] Prior to some experiments, macrophages/microglia or neurons were depleted from the cultures by exposure to 7.5 mM L-leucine methyl ester or 2 mM N-methyl-D-aspartate (NMDA), respectively. See Lipton, NeuroReport 3:913-915 (1992). […] In some experiments, the Griess reaction was used to measure nitrite levels in the culture medium as an index of nitric oxide (NO) release. See Chao et al., Glia 16:276-284 (1996).
Cultures were transferred into Earle's Balanced Salt Solution (EBSS) and incubated for 24 hours with gp120, chemokines, Tuftsin fragment 1-3, i.e., Thr-Lys-Pro (TKP), p38 MAPK inhibitor SB 203580 (i.e., 4-(4-fluorophenyl)-2-(4-methylsulfinylphenyl)-5-(4-pyridyl)imidazole, Calbiochem, San Diego, Calif.), or combinations thereof. Chemokines or TKP were applied for 5 minutes and SB 203580 for 15 minutes prior to gp120 exposure.
TKP was obtained from Sigma (St. Louis, Mo.). Recombinant human MIP-1β, SDF-1α, SDF-1β, and recombinant rat RANTES were purchased from R&D systems ([…].) and Endogen (Woburn, Mass.), respectively. HIV-1 envelope glycoprotein gp120 from the strain SF2 was obtained from the NIH AIDS Research and Reference Reagent Program, Division of AIDS, NIAID, NIH. See Scandella et al., AIDS Res. Hum. Retroviruses 9:1233-1244 (1993). Additional gp120s from HIV-1 strains IIIB and RF2 were obtained from Genetech and the National Cancer Institute, respectively. TNFα, IFNγ, and IL-1β were from Genzyme (Cambridge, Mass.), Gibco BRL (Grand Island, N.Y.) and Endogen (Woburn, Mass.), respectively.
Neuronal apoptosis in the above-described assays was assessed using a variety of techniques, e.g., staining of permeabilized cells with propidium iodide to determine apoptotic morphology, and a neuron-specific antibody (against NeuN or MAP-2) to identify cell type. In brief, cells were fixed for 5 minutes with ice-cold acetone at −20° C. and, after three washes in PBS, for 4 minutes with 2% (w/v) paraformaldehyde solution in PBS at room temperature (RT). Acetone-paraformaldehyde-fixed cells were permeabilized using 0.2% Tween 20 in PBS (PBST), and non-specific binding sites were blocked by incubation for 1 hour with a 10% solution of heat-inactivated goat serum in PBST. To specifically stain neurons, cells were then incubated for 4 hours at RT or overnight at 4° C. with 1:500 dilutions of anti-MAP-2 (Sigma) or anti-NeuN monoclonal antibody (mAb; Chemicon, Temecula, Calif.). Their respective non-specific isotype antibodies served as controls. After three washes, the cells were incubated in a secondary polyclonal antibody (pAb) conjugated either to fluorescein isothiocyanate (FITC) or to horseradish peroxidase (HRP). In the case of HRP-coupled pAb, diaminobenzidine (DAB) served as the color substrate developed by incubation in a mixture of 1 mg/ml DAB and 0.8% H2O2 at a ratio of 3:1. Cellular nuclei were subsequently stained with […] propidium iodide for 5 minutes in the dark, and then coverslips were mounted on glass slides. Experiments were replicated at least 3 times with triplicate values in each experiment. Statistical significance was judged by an analysis of variance (ANOVA) followed by a Scheffé or Bonferroni/Dunn post hoc test.

[3] = system: neurons (NMDA-induced apoptosis); assay: NMDA-induced neuronal apoptosis in cerebrocortical cultures; format: cell-based, Sprague-Dawley rats
Description: (§3) The model used in the assays described below, i.e., rat cerebrocortical cultures, was prepared from embryos of Sprague-Dawley rats at day 15 to 17 of gestation. See Lei et al., Neuron 8:1087-1099 (1992) and Lipton et al., Nature 364:626-632 (1993). Cultures were used for experiments after 17 to 24 days in culture. These cultures contain neurons, astrocytes, and macrophages/microglia, as determined with specific immunolabeling. Prior to some experiments, macrophages/microglia or neurons were depleted from the cultures by exposure to 7.5 mM L-leucine methyl ester or 2 mM N-methyl-D-aspartate (NMDA), respectively. See Lipton, NeuroReport 3:913-915 (1992). Absence of macrophages/microglia or neurons in these cultures was confirmed immunocytochemically, using antibodies to ED-1 and microtubule-associated protein-2 (MAP-2), respectively. In some experiments, the Griess reaction was used to measure nitrite levels in the culture medium as an index of nitric oxide (NO) release. See Chao et al., Glia 16:276-284 (1996).
as §2

[4] = system: cytokine-activated astrocytes; assay: NO release (nitrite, Griess reaction) by cytokine-activated astrocytes; format: cell-based, Sprague-Dawley rats; conditions: in the absence of macrophages/microglia
Description: as §3

[5] = system: neurons in rat cerebrocortical cultures; assay: Neuronal apoptosis assay, chemokine alone versus control; format: cell-based, Sprague-Dawley rats; conditions: α-chemokine 20-50 nM, 24 h
Description: as §1, §2

[6] = system: retinal ganglion cells (RGCs); assay: Optic nerve axotomy model of glaucoma: RGC survival in vivo; set-up: species or system Long-Evans rats; conditions: MK801 intravitreal; 14 days post axotomy
From the text: As a model for studying treatment of glaucoma, damaged (axotomized) retinal ganglion cells were employed. Specifically, transection of the optic nerve close to the cell body causes apoptotic death of retinal ganglion cells (RGCs), similar to that found in glaucoma. […] Three days later, the left optic nerve was intraorbitally transected 1 mm from the globe. One day after axotomy, no remarkable change in the fluorescence pattern of RGCs was seen compared to that of controls. RGC density, as assessed by the number of fluorescently-labeled cells, began to decline between 4 and 7 days post axotomy. By 14 days, a substantial number of fluorescently-labeled RGCs appeared to have been lost. Morphologically, in whole-mounted retinas stained with cresyl violet, ganglion cell layer (GCL) of unlesioned control retinas manifest no apoptotic profiles or pyknotic nuclei. In contrast, by 10 days after axotomy, multiple degenerating cell bodies with pyknotic nuclei were apparent in the GCL, and the cell density in this layer appeared to be greatly diminished. When hydroxystilbamidine fluorescence in the GCL was quantified, in unlesioned control retinas the mean RGC density was 2533±104 cells/mm^2 (mean±SD). Within 14 days of axotomy, the mean RGC density decreased to 348±107 (14% of control).
(§4) One day after axotomy, activated (di-phosphorylated) p38 was visualized by immunocytochemistry in the RGC layer, but not in control retinas. By Western blotting, phosphorylated p38 was first detected 12 hours after axotomy and reached a maximum at 24 hours before decreasing. SB 203580 was administered intravitreally at the time of axotomy, and repeated at 5 days and 10 days.
Retrograde labeling of retinal ganglion cells. Adult male Long-Evans rats weighing 200 to 250 g were obtained from a local breeder and, for all experimental manipulations, were anesthetized with 1-2% isoflurane and 70% N2O. RGCs were retrogradely labeled with hydroxystilbamidine (Molecular Probes, Eugene, Oreg., also known as Fluoro-Gold™) to allow accurate counting of cell bodies as described in Vorwerk et al., Invest. Ophthalmol. Vis. Sci. 40:813-816. Rats were anesthetized and placed in a small stereotactic instrument. The skull was exposed and kept dry. The bregma was identified and marked, and a small window was drilled above the right hemisphere, leaving the dura intact.
Axotomy. Optic nerve axotomy was performed on the left eye 4 days after retrograde labeling. After incision of the dorsolateral conjunctiva, the lateral extraocular muscle was transected, and the optic nerve was exposed under a stereoscopic microscope. The optic nerve was then transected at a distance of about 1 mm from the eye bulb. During the operation, care was taken to avoid damage to the retinal blood supply.
(§5) Drug application. Intravitreal injections were carried out using a 33-gauge needle attached to a 25 μl syringe following pupil dilation with 1% atropine sulfate. The tip of the needle was inserted through the dorsal limbus of the eye under stereomicroscopic visualization. Injections were completed over a period of 1 min. Intravitreal injections of SB 203580 (Calbiochem, San Diego, Calif.), MK801 (Research Biochemicals International, Natick, Mass.) or control solutions (as an equal volume of saline diluent) were performed on operated eyes immediately after axotomy, and repeated 5 and 10 days post axotomy.
Quantification of axotomized RGC survival and histology. […]

p38 = p38 phosphorylation/activation in retina after axotomy; format: in vivo, Long-Evans rats; conditions: MK801 intravitreal after axotomy
Description: as §4, §5
Immunohistochemistry. After enucleation, the eyes were immersed in fixative composed of 4% paraformaldehyde in phosphate-buffered saline (PBS; pH 7.4) at 4° C. Ten minutes later, the eyes were hemisected in the fixative, and the anterior segment, lens and vitreous body were discarded. The remaining posterior eyecup was kept in fresh fixative solution overnight at 4° C. The eyecup was then embedded in paraffin. […]

[7] = β-chemokine at 20 nM applied 5 min before gp120

Q: How did the “effect on SDF-1β-induced neuronal apoptosis” value [1] turn out when Thr-Lys-Pro [TKP] was run?
A: The value was “not abrogated”.

Q: And the “effect on gp120-induced neuronal apoptosis” value ([2]; TKP 50 μM, applied 5 min before gp120)?
A: Its value is “protected neurons from gp120-induced apoptosis”.

Q: And the “effect on NMDA-induced neuronal apoptosis” value [3]?
A: The value was “did not interfere”.

Q: What about the “effect on NO release by cytokine-activated astrocytes” value [4] of the same molecule?
A: Its value is “did not inhibit NO release”.

Q: Which “increase in neuronal apoptosis compared to control” value [5] does the source give for SDF-1α here?
A: The value was “approximately 2 fold”.

Q: And the “effect on neuronal apoptosis induced by gp120” value (shortened to “effect … by gp120”) ([2]; α-chemokine at 20-50 nM)?
A: The value was “did not reduce neuronal damage or apoptosis”.

Q: Which results are given for C[C@]12N[C@H](Cc3ccccc31)c1ccccc12 [MK801]?
A: number of surviving RGCs [6]: increased the number of surviving RGCs; p38 phosphorylation/activation (p38): inhibited p38 phosphorylation/activation in a dose-dependent manner

Q: How did the “effect … by gp120” value [2, 7] turn out when RANTES was run?
A: The value was “abrogated”.

Q: Which “effect on gp120SF2-induced neuronal apoptosis” value ([2]; PDTC 5 μM) does the source give for S=C(S)N1CCCC1 [PDTC, pyrrolidine dithiocarbamate] here?
A: The value was “only SB 203580 substantially attenuated”.

Q: Which “effect on gp120SF2-induced neuronal apoptosis” value ([2]; PD 98059 2 μM) does the source give for COc1cccc(-c2cc(=O)c3ccccc3o2)c1N [PD 98059, 2′-amino-3′-methoxyflavone] here?
A: Its value is “only SB 203580 substantially attenuated”.

B1: MIP-1β: recombinant human MIP-1β, β-chemokine (protein, UniProt P13236 24-92, looked up)
C-C motif chemokine 4: APMGSDPPTACCFSYTARKLPRNFVVDYYETSSLCSQPAVVFQTKRSKQVCADPSESWVQEYVYDLELN
Q: With B1 as the molecule, how does the “effect … by gp120” value [2, 7] read?
A: Its value is “abrogated”.
